# Source: the supplement of paper PMC10307832
# Key:
# Assay in all cases: relative viability (nuclei count vs DMSO), 5 days (fraction); higher = more cells survive
# [1] = tested on: NCI-H2023
# Outline: (§1)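 Lung cancer cell lines in 1536-well plates got either a single drug or a fixed anchor-drug dose together with five library-drug doses (not always all listed) in √10 steps, by pin tool, on the day after seeding. Nuclei were counted after 5 days, and relative viability is the treated-to-vehicle ratio of nuclei counts. Values are medians of duplicate plates.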
# [2] = tested on: NCI-H2405
# Outline: as §1
# [3] = tested on: SW 1573
# Outline: as §1
# [4] = tested on: NCI-H2009
# Outline: as §1
# [5] = tested on: NCI-H520
# Outline: as §1
# [6] = tested on: NCI-H2347
# Outline: as §1
# [7] = tested on: NCI-H1793
# Outline: as §1
# [8] = tested on: NCI-H441
# Outline: as §1
# [9] = tested on: LOU-NH91
# Outline: as §1
# [10] = tested on: NCI-H650
# Outline: as §1
# [11] = tested on: ChaGo-K-1
# Outline: as §1
# [12] = tested on: EMC-BAC-2
# Outline: as §1
# [13] = tested on: NCI-H1437
# Outline: as §1
# [14] = tested on: SW 900
# Outline: as §1
# [15] = tested on: NCI-H2170
# Outline: as §1
# [16] = tested on: HOP-62
# Outline: as §1
# [17] = tested on: HCC-44
# Outline: as §1
# [18] = tested on: NCI-H460
# Outline: as §1
# [19] = tested on: NCI-H647
# Outline: as §1
# [20] = tested on: EPLC-272H
# Outline: as §1
# [21] = tested on: NCI-H2126
# Outline: as §1
smiles,measurement,setting,value
COCC1(CO)C(=O)C2CCN1CC2 (stereo unspecified) [PRIMA-1MET] + Nc1nc2[nH]cc(CCc3ccc(C(=O)N[C@@H](CCC(=O)O)C(=O)O)cc3)c2c(=O)[nH]1 [Pemetrexed] (partner 0.2 µM),relative viability,[1]; first compound 0.2 µM,0.224
same,relative viability,[1]; first compound 0.6325 µM,0.23
same,relative viability,[1]; first compound 2 µM,0.28
same,relative viability,[1]; first compound 6.325 µM,0.237
same,relative viability,[1]; first compound 20 µM,0.147
same,relative viability,[2]; first compound 0.2 µM,1.01
same,relative viability,[2]; first compound 0.6325 µM,0.986
same,relative viability,[2]; first compound 6.325 µM,0.974
same,relative viability,[2]; first compound 20 µM,0.0844
same,relative viability,[3]; first compound 0.2 µM,0.882
same,relative viability,[3]; first compound 0.6325 µM,0.89
same,relative viability,[3]; first compound 2 µM,0.752
same,relative viability,[3]; first compound 6.325 µM,0.0377
same,relative viability,[3]; first compound 20 µM,0.0278
same,relative viability,[4]; first compound 0.2 µM,0.973
same,relative viability,[4]; first compound 0.6325 µM,1.03
same,relative viability,[4]; first compound 2 µM,1.03
same,relative viability,[4]; first compound 6.325 µM,0.96
same,relative viability,[4]; first compound 20 µM,0.435
same,relative viability,[5]; first compound 0.2 µM,0.726
same,relative viability,[5]; first compound 2 µM,0.681
same,relative viability,[5]; first compound 6.325 µM,0.647
same,relative viability,[5]; first compound 20 µM,0.421
same,relative viability,[6]; first compound 0.2 µM,0.441
same,relative viability,[6]; first compound 0.6325 µM,0.455
same,relative viability,[6]; first compound 2 µM,0.335
same,relative viability,[6]; first compound 6.325 µM,0.407
same,relative viability,[6]; first compound 20 µM,0.398
same,relative viability,[7]; first compound 0.2 µM,0.964
same,relative viability,[7]; first compound 0.6325 µM,0.803
same,relative viability,[7]; first compound 6.325 µM,1.09
same,relative viability,[7]; first compound 20 µM,0.919
same,relative viability,[8]; first compound 0.2 µM,0.24
same,relative viability,[8]; first compound 0.6325 µM,0.2
same,relative viability,[8]; first compound 2 µM,0.271
same,relative viability,[8]; first compound 6.325 µM,0.274
same,relative viability,[8]; first compound 20 µM,0.204
same,relative viability,[9]; first compound 0.2 µM,0.356
same,relative viability,[9]; first compound 0.6325 µM,0.367
same,relative viability,[9]; first compound 2 µM,0.405
same,relative viability,[9]; first compound 6.325 µM,0.4
same,relative viability,[9]; first compound 20 µM,0.344
same,relative viability,[10]; first compound 0.2 µM,1.26
same,relative viability,[10]; first compound 0.6325 µM,0.894
same,relative viability,[10]; first compound 2 µM,0.884
same,relative viability,[10]; first compound 6.325 µM,0.978
same,relative viability,[10]; first compound 20 µM,0.263
same,relative viability,[11]; first compound 0.2 µM,0.249
same,relative viability,[11]; first compound 0.6325 µM,0.261
same,relative viability,[11]; first compound 2 µM,0.26
same,relative viability,[11]; first compound 6.325 µM,0.247
same,relative viability,[11]; first compound 20 µM,0.263
same,relative viability,[12]; first compound 0.2 µM,0.549
same,relative viability,[12]; first compound 0.6325 µM,0.44
same,relative viability,[12]; first compound 2 µM,0.422
same,relative viability,[12]; first compound 6.325 µM,0.459
same,relative viability,[12]; first compound 20 µM,0.473
same,relative viability,[13]; first compound 0.2 µM,0.32
same,relative viability,[13]; first compound 0.6325 µM,0.284
same,relative viability,[13]; first compound 2 µM,0.308
same,relative viability,[13]; first compound 6.325 µM,0.298
same,relative viability,[13]; first compound 20 µM,0.283
same,relative viability,[14]; first compound 0.2 µM,0.522
same,relative viability,[14]; first compound 0.6325 µM,0.282
same,relative viability,[14]; first compound 6.325 µM,0.455
same,relative viability,[14]; first compound 20 µM,0.0805
same,relative viability,[15]; first compound 0.2 µM,0.271
same,relative viability,[15]; first compound 0.6325 µM,0.25
same,relative viability,[15]; first compound 2 µM,0.274
same,relative viability,[15]; first compound 6.325 µM,0.258
same,relative viability,[15]; first compound 20 µM,0.268
same,relative viability,[16]; first compound 0.2 µM,0.407
same,relative viability,[16]; first compound 0.6325 µM,0.377
same,relative viability,[16]; first compound 2 µM,0.36
same,relative viability,[16]; first compound 6.325 µM,0.377
same,relative viability,[16]; first compound 20 µM,0.122
same,relative viability,[17]; first compound 0.2 µM,0.748
same,relative viability,[17]; first compound 0.6325 µM,0.641
same,relative viability,[17]; first compound 2 µM,0.681
same,relative viability,[17]; first compound 6.325 µM,0.676
same,relative viability,[17]; first compound 20 µM,0.607
same,relative viability,[18]; first compound 0.2 µM,0.0602
same,relative viability,[18]; first compound 0.6325 µM,0.051
same,relative viability,[18]; first compound 2 µM,0.0601
same,relative viability,[18]; first compound 6.325 µM,0.0553
same,relative viability,[18]; first compound 20 µM,0.0386
same,relative viability,[19]; first compound 0.2 µM,0.19
same,relative viability,[19]; first compound 0.6325 µM,0.152
same,relative viability,[19]; first compound 2 µM,0.19
same,relative viability,[19]; first compound 6.325 µM,0.173
same,relative viability,[19]; first compound 20 µM,0.124
same,relative viability,[20]; first compound 0.2 µM,0.35
same,relative viability,[20]; first compound 0.6325 µM,0.403
same,relative viability,[20]; first compound 2 µM,0.314
same,relative viability,[20]; first compound 6.325 µM,0.317
same,relative viability,[20]; first compound 20 µM,0.138
same,relative viability,[21]; first compound 0.2 µM,0.657
same,relative viability,[21]; first compound 0.6325 µM,0.614
same,relative viability,[21]; first compound 2 µM,0.609
same,relative viability,[21]; first compound 6.325 µM,0.699
same,relative viability,[21]; first compound 20 µM,0.67
